Assay results as given in patent US8431563B2 (priority 2010, dated 2013).

The molecules below were run against T1, GK-GKRP (Homo sapiens, UniProt Q14397) (assay: biochemical). Conditions: GK-GKRP IC50 (Binding).
T1 sequence (Q14397 1-625): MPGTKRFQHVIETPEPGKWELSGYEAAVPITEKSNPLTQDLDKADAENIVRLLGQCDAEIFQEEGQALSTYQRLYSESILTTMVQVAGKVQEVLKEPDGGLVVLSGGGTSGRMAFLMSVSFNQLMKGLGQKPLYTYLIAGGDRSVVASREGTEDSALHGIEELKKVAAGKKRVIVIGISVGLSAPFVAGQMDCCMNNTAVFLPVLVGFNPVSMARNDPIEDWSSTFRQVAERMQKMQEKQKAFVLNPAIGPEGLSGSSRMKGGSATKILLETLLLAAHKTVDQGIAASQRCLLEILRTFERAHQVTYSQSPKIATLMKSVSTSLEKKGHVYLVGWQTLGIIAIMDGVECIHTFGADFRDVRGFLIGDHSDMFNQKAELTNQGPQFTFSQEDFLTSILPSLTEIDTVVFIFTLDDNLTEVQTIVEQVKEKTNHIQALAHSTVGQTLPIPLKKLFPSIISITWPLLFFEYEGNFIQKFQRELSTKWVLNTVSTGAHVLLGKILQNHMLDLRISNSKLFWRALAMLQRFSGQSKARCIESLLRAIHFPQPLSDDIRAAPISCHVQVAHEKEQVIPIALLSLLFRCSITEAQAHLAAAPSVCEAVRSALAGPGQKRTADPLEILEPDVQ
`CC(c1ccccc1)N(C[C@H]1CN(S(=O)(=O)c2cccs2)CCN1c1ccc(C(C)(O)C(F)(F)F)cc1)S(C)(=O)=O` (mixture of isomers) [Example 252, N-(1-phenylethyl)-N-(((2R)-4-(2-thiophenylsulfonyl)-1-(4-(2,2,2-trifluoro-1-hydroxy-1-methylethyl)phenyl)-2-piperazinyl)methyl)methanesulfonamide] gave an IC50 of 671 nM. With `CC(C)CS(=O)(=O)N(C[C@H]1CN(S(=O)(=O)c2cccs2)CCN1c1ccc(C(C)(O)C(F)(F)F)cc1)c1cccnc1` (mixture of isomers) [Example 253, 2-methyl-N-3-pyridinyl-N-(((2R)-4-(2-thiophenylsulfonyl)-1-(4-(2,2,2-trifluoro-1-hydroxy-1-methylethyl)phenyl)-2-piperazinyl)methyl)-1-propanesulfonamide] the IC50 was 35 nM. `CC(O)(c1ccc(N2CCN(S(=O)(=O)c3cccs3)C[C@@H]2CNS(=O)(=O)c2ccc(F)cc2)cc1)C(F)(F)F` (mixture of isomers) [Example 254, 4-fluoro-N-(((2S)-4-(2-thiophenylsulfonyl)-1-(4-(2,2,2-trifluoro-1-hydroxy-1-methylethyl)phenyl)-2-piperazinyl)methyl)benzenesulfonamide] showed an IC50 of 323 nM. In the case of `CC(O)(c1ccc(N2CCN(S(=O)(=O)c3cccs3)C[C@@H]2CN(c2ccc(F)cc2)S(C)(=O)=O)cc1)C(F)(F)F` (mixture of isomers) [Example 255, N-(4-fluorophenyl)-N-(((2R)-4-(2-thiophenylsulfonyl)-1-(4-(2,2,2-trifluoro-1-hydroxy-1-methylethyl)phenyl)-2-piperazinyl)methyl)methanesulfonamide], the IC50 is reported as 2 nM. `CC(=O)N(C[C@H]1CN(S(=O)(=O)c2cccs2)CCN1c1ccc(C(C)(O)C(F)(F)F)cc1)c1ccc(F)cc1` (mixture of isomers) [Example 256, N-(4-fluorophenyl)-N-(((2S)-4-(2-thiophenylsulfonyl)-1-(4-(2,2,2-trifluoro-1-hydroxy-1-methylethyl)phenyl)-2-piperazinyl)methyl)acetamide] showed an IC50 of 23 nM. `CC#CC1CN(S(=O)(=O)c2nnc(N)s2)CCN1c1ccc(C(O)(C(F)(F)F)C(F)(F)F)cc1` (racemic) [Example 249, 2-(4-(4-((5-amino-1,3,4-thiadiazol-2-yl)sulfonyl)-2-(1-propyn-1-yl)-1-piperazinyl)phenyl)-1,1,1,3,3,3-hexafluoro-2-propanol] was tested, and the IC50 was 112 nM. In the case of `CC#CC1CN(S(=O)(=O)c2cnc(N)c(F)c2)CCN1c1ccc(C(O)(C(F)(F)F)C(F)(F)F)cc1` (racemic) [Example 250, 2-(4-(4-((6-amino-5-fluoro-3-pyridinyl)sulfonyl)-2-(1-propyn-1-yl)-1-piperazinyl)phenyl)-1,1,1,3,3,3-hexafluoro-2-propanol], the IC50 is reported as 15 nM. With `CC(O)(c1cnc(-c2ccc(S(=O)(=O)c3ccc(N)nc3)cc2)nc1)C(F)(F)F` (racemic) [Example 265, 2-(2-(4-((6-amino-3-pyridinyl)sulfonyl)phenyl)-5-pyrimidinyl)-1,1,1-trifluoro-2-propanol] the IC50 was 229 nM. `CC#CC1CN(S(=O)(=O)c2ccc(N)nc2)CCN1c1ncc(C(C)(O)C(F)(F)F)cn1` (single isomer, unassigned) [Example 251 First Eluting Peak from Set One, 2-(2-(4-((6-amino-3-pyridinyl)sulfonyl)-2-(1-propyn-1-yl)-1-piperazinyl)-5-pyrimidinyl)-1,1,1-trifluoro-2-propanol] gave an IC50 of 15 nM. In the case of `CC#CC1CN(S(=O)(=O)c2ccc(N)nc2)CCN1c1ncc(C(C)(O)C(F)(F)F)cn1` (single isomer, unassigned) [Example 251 First Eluting Peak from Set Two, 2-(2-(4-((6-amino-3-pyridinyl)sulfonyl)-2-(1-propyn-1-yl)-1-piperazinyl)-5-pyrimidinyl)-1,1,1-trifluoro-2-propanol], the IC50 is reported as 11300 nM. `CC#CC1CN(S(=O)(=O)c2ccc(N)nc2)CCN1c1ncc(C(C)(O)C(F)(F)F)cn1` (single isomer, unassigned) [Example 251 Second Eluting Peak from Set One, 2-(2-(4-((6-amino-3-pyridinyl)sulfonyl)-2-(1-propyn-1-yl)-1-piperazinyl)-5-pyrimidinyl)-1,1,1-trifluoro-2-propanol] gave an IC50 of 9 nM. `CC#CC1CN(S(=O)(=O)c2ccc(N)nc2)CCN1c1ncc(C(C)(O)C(F)(F)F)cn1` (single isomer, unassigned) [Example 251 Second Eluting Peak from Set Two, 2-(2-(4-((6-amino-3-pyridinyl)sulfonyl)-2-(1-propyn-1-yl)-1-piperazinyl)-5-pyrimidinyl)-1,1,1-trifluoro-2-propanol] gave an IC50 of 15300 nM. `CC(O)(c1ccc(N2CCN(S(=O)(=O)c3cccs3)C[C@@H]2CN2CCNC(C(F)(F)F)C2)cc1)C(F)(F)F` (single isomer, unassigned) [Example 270 Peak 1] showed an IC50 of 251 nM. `CC(O)(c1ccc(N2CCN(S(=O)(=O)c3cccs3)C[C@@H]2CN2CCNC(C(F)(F)F)C2)cc1)C(F)(F)F` (single isomer, unassigned) [Example 270 Peak 2] gave an IC50 of 463 nM. In the case of `CC(O)CC1CN(S(=O)(=O)c2ccc(N)nc2)CCN1c1ncc(C(O)(C(F)(F)F)C(F)(F)F)cn1` (stereo not drawn) [Example 244, 2-(2-(4-((6-amino-3-pyridinyl)sulfonyl)-2-(2-hydroxypropyl)-1-piperazinyl)-5-pyrimidinyl)-1,1,1,3,3,3-hexafluoro-2-propanol], the IC50 is reported as 743 nM. `CC#C[C@H]1CN(S(=O)(=O)c2ccccc2)CCN1c1ccc(C(O)(C(F)(F)F)C(F)(F)F)cc1` [Example 247, 1,1,1,3,3,3-hexafluoro-2-(4-((2S)-4-(phenylsulfonyl)-2-(1-propyn-1-yl)-1-piperazinyl)phenyl)-2-propanol] gave an IC50 of 21 nM. In the case of `CC#CC1CN(S(=O)(=O)c2nccs2)CCN1c1ccc(C(O)(C(F)(F)F)C(F)(F)F)cc1` (stereo not drawn) [Example 248], the IC50 is reported as 15 nM. For `CC#Cc1cc(C(O)(C(F)(F)F)C(F)(F)F)ccc1N1CCN(S(=O)(=O)c2cccs2)CC1` [Example 262, 1,1,1,3,3,3-hexafluoro-2-(3-(1-propyn-1-yl)-4-(4-(2-thiophenylsulfonyl)-1-piperazinyl)phenyl)-2-propanol], the IC50 was 834 nM. `Nc1ccc(S(=O)(=O)N2CCN(c3ncc(C(O)(C(F)(F)F)C(F)(F)F)cn3)[C@@H](CN3C4CCC3COC4)C2)cn1` [Example 271, 2-(2-((2S)-4-((6-amino-3-pyridinyl)sulfonyl)-2-(3-oxa-8-azabicyclo[3.2.1]oct-8-ylmethyl)-1-piperazinyl)-5-pyrimidinyl)-1,1,1,3,3,3-hexafluoro-2-propanol] gave an IC50 of 3 nM. `C[C@H]1COCC(=O)N1C[C@H]1CN(S(=O)(=O)c2cccs2)CCN1c1ccc([C@](C)(O)C(F)(F)F)cc1` [Example 272, (S)-5-methyl-4-(((S)-4-(tiophen-2-ylsulfonyl)-1-(4-((S)-1,1,1-trifluoro-2-hydroxypropan-2-yl)phenyl)piperazin-2-yl)methyl)morpholin-3-one] was tested, and the IC50 was 217 nM. Work on `Nc1ccc(S(=O)(=O)N2CCN(c3ccc(C(O)(C(F)(F)F)C(F)(F)F)cc3)[C@@H](CS(=O)(=O)c3ccccc3)C2)cn1` [Example 273, 2-(4-((2R)-4-((6-amino-3-pyridinyl)sulfonyl)-2-((phenylsulfonyl)methyl)-1-piperazinyl)phenyl)-1,1,1,3,3,3-hexafluoro-2-propanol] yielded an IC50 of 49 nM.
